Consider three molecules from patent publication US4052262A (priority 1969, dated 1977).

Structures are written as SMILES. Like-named read-outs stand apart in the source and are kept apart here.

In this experiment the target is T1, alkaline protease (crystalline enzyme of the present invention) from Bacillus sp. No. 221 (ATCC 21522), Bacillus sp. No. 0-4 (ATCC 21536) or Bacillus sp. No. Y- (Shouchella clausii, UniProt P41362).
T1 construct: made in house; host or cells: culture of the wild Bacillus strain (No. 221, No. 0-4 or No. Y-76); native enzyme isolated from the culture
T1 sequence (P41362 112-380): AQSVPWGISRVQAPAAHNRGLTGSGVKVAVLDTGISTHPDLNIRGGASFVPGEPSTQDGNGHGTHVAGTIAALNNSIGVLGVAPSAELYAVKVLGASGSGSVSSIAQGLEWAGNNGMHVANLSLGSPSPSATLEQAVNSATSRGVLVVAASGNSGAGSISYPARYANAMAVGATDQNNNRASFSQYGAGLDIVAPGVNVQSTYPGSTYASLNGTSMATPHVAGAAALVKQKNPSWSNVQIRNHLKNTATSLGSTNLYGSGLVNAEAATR
The format is biochemical, No. Y-76. How it is done:
One milliliter of the enzyme solution suitably diluted with 10^-2 M CaCl2 was mixed with 5 ml of 0.6% casein solution (pH 11.5, 2 × 10^-2 M Na2 HPO4 - NaOH buffer) at 30° C. After 10 minutes' incubation, 5 ml of trichloroacetic acid solution (0.11M trichloroacetic acid, 0.22M sodium acetate, and 0.33M acetic acid) was added to the reaction mixture and the mixture was further incubated at 30° C for 30 minutes. The mixture was filtered and the absorbance of the filtrate was measured at 275 mμ. The readings were corrected by substracting the value of the blank in which the enxyme solution was mixed with trichloroacetic acid solution before the casein solution was added.
One unit of protease activity is defined as the amount of enzyme required to produce the digest which is not precipitated by trichloroacetic acid and which gives absorbance value equivalent to 1 γ of tyrosine per minute at 30° C. The relative activity is the activity at any pH divided by the maximum activity and multiplied by 100. FIG. 4 of this application gives the data of the absolute activity (arbitrary scale) on the ordinate and the pH's on the axis of the abscissa.

As to `O=C(O)CN(CCN(CC(=O)O)CC(=O)O)CC(=O)O` [EDTA, ethylenediaminetetraacetic acid], the Residual activity turned out to be 100%.
Regarding `O=C(O)c1cc[c]([Hg][Cl])cc1` [PCMB, p-chloromercuribenzoate], for the setting “additive concentration 10^-3 M”, the Residual activity is recorded as 100%.
The molecule `NC(N)=O` [Urea] registered a Residual activity (additive concentration 6 M) of 0%.
